What was measured:
[1] = system: SP-A deficient mice challenged in the HDM model; assay: HDM model in SP-A deficient mice, therapeutic SP-A peptides; format: in vivo; settings: peptide given 24 hrs after the last challenge; for eosinophilia in the lavage compartment: compared to vehicle treated mice (FIG. 3A); for mucin production: compared to vehicle treated mice (FIG. 3B)
Experimental: FIGS. 3A and 3B show the analysis of inflammation in mice that receive “therapeutic” SP-A peptides in the HDM model. Mice were sensitized and challenged in the HDM model according to common methods. Twenty-four hours after the last challenge, mice received either vehicle, a 20-mer or a 10-mer that encompassed the active site containing 223Q. BAL cellularity (left panel) and mucin production (right panel) were assessed 7 days post challenge to assess the role of SP-A on allergic airways resolution. […] Both 223Q and 223K mice are somewhat protected in the acute phase of this model.

[2] = system: WT C57BL/6 mice, HDM model; assay: Methacholine-induced airway hyper-responsiveness (AHR) in HDM model; format: in vivo; settings: 25 mg/mouse in 40 ml saline oropharyngeal 24 h after each challenge, 3-5 days post HDM challenge, vs vehicle
Experimental: Twenty-four hours after each challenge, mice received either scrambled vehicle or a 10-mer SP-A peptide (KEQCVEMYTD (SEQ ID NO: 4)) (arrow) that encompassed the active site containing 223Q (at a physiologic dose of […] delivered in […] of sterile saline) by oropharyngeal instillation. Pulmonary function tests were conducted 3-5 days post HDM challenge to determine if the SP-A peptide could protect from methacholine-induced airway hyper-responsiveness (AHR). Mice that received the SP-A peptide after HDM challenge had attenuated: overall resistance (Rrs) and central airways resistance (Rn) as compared to HDM challenged mice that received vehicle treatment.

[3] = system: WT C57BL/6 mice challenged with IL-13; assay: Methacholine-induced airway hyper-responsiveness (AHR) in IL-13 model; format: in vivo; settings: IL-13 model (3.9 ug IL-13 daily, 3 days); oropharyngeal 2 h after each challenge; 24 hours post IL-13 challenge; vs vehicle
Experimental: WT C57BL/6 mice were challenged with 3.9 ug of IL-13 (arrow) once a day for 3 consecutive days via oropharyngeal instillation. […] Pulmonary function tests were conducted 24 hours post IL-13 challenge to determine if the SP-A peptide could protect from methacholine-induced airway hyper-responsiveness (AHR). Mice that received the SP-A peptide after HDM challenge had attenuated: overall resistance (Rrs) and central airways resistance (Rn) as compared to HDM challenged mice that received vehicle treatment.

[4] = system: human airway epithelial cells; assay: IL-13 exposure of airway epithelial cells from asthmatics at air liquid interface, MUC5AC by RT-PCR; format: cell-based
Experimental: Airway epithelial cells at ALI from two asthmatic subjects exposed to IL-13 alone, and IL-13 plus SP-A2 peptide that include the Gln at position 223 in the lectin domain (2230). Full-length oligomeric SP-A that is homozygous at position 223Q/Q was used as a positive control. After 48 hours incubation, MUCSAC expression was determined by RT-PCR
Experiments were conducted wherein airway epithelial cells from two subjects with asthma not on controller therapy were cultured at air liquid interface for two weeks. In separate conditions the cells were exposed to each peptide at 50 ng/ml for 30 minutes followed by IL-13 at 50 ng/ml and incubated for 48 hours. Cells were placed in Trizol MUCSAC was determined by RT-PCR. […] The 10 AA length is especially useful as a therapeutic agent as its size renders it able to be packaged into an inhaler type of device for delivery to the airways.
Regarding FIG. 8, human bronchial epithelial cells obtained from a well-phenotyped asthmatic were grown at an ALI for two weeks prior to experimentation. For challenge, each of the SP-A test peptides (50 μg/ml) were added to the apical compartment at least 30 minutes prior to IL-13 challenge. Muc5AC was analyzed by RT-PCR from cell lysates and analyzed as a fold over the control samples. Peptide sequences: 20-mer […] (SEQ ID NO: 8), peptide 1 PAGRGKEQCV (SEQ ID NO: 2), peptide 2 EMYTDGQWND (SEQ ID NO: 3), peptide 3 KEQCVEMYTD (SEQ ID NO: 4) FL=full length oligomeric SP-A that is extracted from lavage of alveolar proteinosis individuals.

[5] = system: WT C57BL/6 mice, house dust mite (HDM) model; assay: House dust mite (HDM) model in WT C57BL/6 mice, mucin production and BAL eosinophilia; format: in vivo; settings: WT C57BL/6, HDM days 0, 7, 14; 25 μg/mouse oropharyngeal 24 h after last challenge (FIGS. 5, 6)
Experimental: Regarding FIG. 5, WT C57BL/6 mice were sensitized and challenged in the house dust mite (HDM) model according to standard methods on days 0, 7, 14 (black arrows). Twenty-four hours after the last challenge, mice received either scrambled vehicle or a 20-mer SP-A peptide (dotted arrow) that encompassed the active site containing 223Q (at a physiologic dose of 25 μg/mouse delivered in 40 μl of sterile saline) by oropharyngeal instillation. Lung histological sections were analyzed for mucin production as assessed by PAS stain/scoring to determine if the SP-A peptide could protect from HDM-induced airway mucin production. […] Peptide sequence: […] (SEQ ID NO: 8).
Regarding FIG. 6, WT C57BL/6 mice were sensitized and challenged in the house dust mite (HDM) model according to standard methods on days 0, 7, 14 as shown in FIG. 5 (black arrows). […] Lung histological sections were analyzed for mucin production as assessed by PAS stain/scoring to determine if the SP-A peptide could protect from HDM-induced airway mucin production. […]
Regarding FIG. 7, WT C57BL/6 mice were sensitized and challenged in the house dust mite (HDM) model according to standard methods on days 0, 7, 14 as shown in FIG. 5 (black arrows). […] Bronchoalveolar lavage samples were analyzed for eosinophilia to determine if the SP-A peptide could protect from HDM-induced airway eosinophilia by decreasing eosinophil viability. […]

eosinophils = assay: In vitro studies with isolated eosinophils; format: cell-based
[6] = airway epithelial cells from asthmatic subjects with allergic or type 2 asthma

| Substance | eosinophilia in the lavage compartment [1] | mucin production [1] | central airways resistance (Rn) [2] | overall resistance (Rrs) [2] | central airways resistance (Rn) [3] | overall resistance (Rrs) [3] | MUCSAC expression (RT-PCR) ([4]; cells from two asthmatic subjects at ALI, peptide 50 ng/ml 30 minutes, then IL-13 50 ng/ml, 48 hours (FIG. 4)) | mucin production (PAS stain/scoring) [5] | eosinophil apoptosis (eosinophils) | IL-6 induced by IL-13 [4, 6] | mucin induced by IL-13 [4, 6] |
| --- | --- | --- | --- | --- | --- | --- | --- | --- | --- | --- | --- |
| KEQCVEMYTD (listed as Homo sapiens) [SEQ ID NO: 4] | significantly less eosinophilia | less mucin production | attenuated | attenuated | attenuated | attenuated | attenuates |  |  |  |  |
| PAGRGKEQCVEMYTDGQWND (listed as Homo sapiens) [SEQ ID NO: 8] | significantly less eosinophilia | less mucin production |  |  |  |  |  | reduce mucin production |  |  |  |
| SP-A: Surfactant protein-A, a secreted lipoprotein complex; full length oligomeric SP-A extracted from lavage of alveolar proteinosis individuals |  |  |  |  |  |  |  |  | directly stimulates eosinophil apoptosis | attenuates | attenuates |

Source: patent US12678475B2, “Compositions and methods for treating and preventing lung disease” (ARIZONA BOARD OF REGENTS ON BEHALF OF THE UNIVERSITY OF …, priority 2016, dated 2026)
